{"source": "paper PMC6456166", "about": "“Mitochondrial type II NADH dehydrogenase of Plasmodium falciparum (PfNDH2) is dispensable in the asexual blood stages” (PLoS ONE, 2019)", "target": "T1, cytochrome bc1 complex (cytochrome b, cyt b) (Plasmodium falciparum, UniProt Q02768)", "T1 construct": "gene MT-CYB; native bc1 complex in mitochondria-enriched preparations from D10 WT and ΔPfNDH2 parasites; with other subunits of the bc1 complex (Complex III)", "T1 sequence (Q02768 1-376)": "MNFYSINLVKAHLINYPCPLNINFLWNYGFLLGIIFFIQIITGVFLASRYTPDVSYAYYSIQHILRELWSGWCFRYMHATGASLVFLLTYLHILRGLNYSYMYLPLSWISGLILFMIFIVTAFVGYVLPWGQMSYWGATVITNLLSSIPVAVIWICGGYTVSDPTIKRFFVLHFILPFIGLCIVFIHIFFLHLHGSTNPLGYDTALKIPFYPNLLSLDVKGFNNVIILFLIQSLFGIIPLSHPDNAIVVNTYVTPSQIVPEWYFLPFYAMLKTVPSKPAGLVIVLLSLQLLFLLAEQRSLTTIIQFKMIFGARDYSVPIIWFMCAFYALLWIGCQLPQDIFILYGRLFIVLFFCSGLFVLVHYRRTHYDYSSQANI", "assay": "ubiquinol-cytochrome c reductase assay in isolated parasite mitochondria ([…] nm), dose-dependent inhibition in WT and ΔPfNDH2", "format": "cell-based"}
{"smiles": "CCCCCCCCCCCCc1cc(=O)c2ccccc2n1O", "note": "[HDQ, 1-hydroxy-2-dodecyl-4(1H) quinolone]", "values": [{"measurement": "ubiquinol-cytochrome c reductase assay in isolated parasite mitochondria (550 nm)", "value": "HDQ and CK-2-68 inhibited the ubiquinol-cytochrome c reductase activity in the mitochondria of ΔPfNDH2 and WT"}]}
